Test results as given in paper PMC9267128, “New 2-[(4-Amino-6-N-substituted-1,3,5-triazin-2-yl)methylthio]-N-(imidazolidin-2-ylidene)-4-chloro-5-methylbenzenesulfonamide Derivatives, Design, Synthesis and Anticancer Evaluation” (International Journal of Molecular Sciences, 2022).

Key:
MCF-7 (breast cancer) = test: MTT cell viability assay, MCF-7; type: cell-based, human; conditions: for IC50: Homo sapiens, MCF7, 72 h, MTT assay, 72 h of incubation; for Selectivity Index (SI) MCF-7: IC50 value toward HaCaT cells/IC50 value toward MCF-7
Procedure: (§1) Compounds 20–162 were evaluated in vitro for their effects on the viability of three cancer cell lines: HCT-116 (colon cancer), MCF-7 (breast cancer) and HeLa (cervical cancer), as well as the non-cancerous keratinocyte cell line (HaCaT). […] Analysis was performed using an MTT assay after 72 h of incubation.
(§2) All chemicals, if not stated otherwise, were obtained from Sigma–Aldrich (St. Louis, MO, USA). The HCT-116 cell line was purchased from ATCC (ATCC-No: CCL-247), while the MCF-7, HeLa and HaCaT cell lines were purchased from Cell Lines Services (Eppelheim, Germany). Cells were cultured in Dulbecco’s modified Eagle’s medium (DMEM) supplemented with 10% fetal bovine serum, 2 mM glutamine, 100 units/mL penicillin and 100 µg/mL streptomycin. Cultures were maintained in a humidified atmosphere with 5% carbon dioxide at 37 °C in an incubator (Heraceus, HeraCell).
(§3) Cell viability was examined using the MTT [3-(4,5-dimethylthiazol-2-yl)-2,5-diphenyltetrazolium bromide] assay. Cells were seeded in 96-well plates at a density of 3 × 10^3 cells/well and treated for 72 h with the tested compounds in the concentration range of 1–100 µM. Then, MTT (0.5 mg/mL) was added to the medium and cells were further incubated for 2 h at 37 °C. In the next stage, cells were lysed with DMSO and the absorbance of the formazan solution was measured at 550 nm with a plate reader (1420 multilabel counter, Victor, Jügesheim, Germany). The experiment was performed in triplicate. Values are expressed as the mean ± SD of at least three independent experiments. Cisplatin was used as a positive control.

[1] = test system: HaCaT (human keratinocyte cell line); test: MTT cell viability assay, non-cancerous HaCaT; type: cell-based; conditions: Homo sapiens, HaCaT, 72 h, 72 h of incubation, non-cancerous keratinocytes
Procedure: as §1, §2, §3

HeLa (cervical cancer) = test: MTT cell viability assay, HeLa; type: cell-based, human; conditions: for IC50: Homo sapiens, HeLa, MTT assay, 72 h of incubation; for Selectivity Index (SI) HeLa: IC50 value toward HaCaT cells/IC50 value toward HeLa
Procedure: (§4) Analysis was performed using an MTT assay after 72 h of incubation.
as §2
as §3, with “experiments.” for “experiments. Cisplatin was used as a positive control.”

HCT-116 (colon cancer) = test: MTT cell viability assay, HCT-116; type: cell-based, human; conditions: for IC50: MTT assay, 72 h of incubation; for Selectivity Index (SI) HCT-116: IC50 value toward HaCaT cells/IC50 value toward HCT-116
Procedure: as §4, §2
as §3, with “experiments.” for “experiments. Cisplatin was used as a positive control.”

SMILES | IC50 (MCF-7 (breast cancer)) | IC50 (HeLa (cervical cancer)) | IC50 (HCT-116 (colon cancer); Homo sapiens, HCT-116, 72 h) | IC50 (HCT-116 (colon cancer)) | IC50 [1] | Selectivity Index (SI) MCF-7 (MCF-7 (breast cancer)) | Selectivity Index (SI) HeLa (HeLa (cervical cancer)) | Selectivity Index (SI) HCT-116 (HCT-116 (colon cancer))
COc1ccc(N2CCN(c3nc(N)nc(CSc4cc(Cl)c(C)cc4S(=O)(=O)N=C4NCCN4Cc4ccc(F)cc4)n3)CC2)cc1 [Compound 100] | 7 ± 0.1 µM | 8 ± 0.5 µM | 8 ± 0.2 µM |  | 18 ± 1 µM |  |  | 
Cc1cc(S(=O)(=O)N=C2NCCN2Cc2ccc(F)cc2)c(SCc2nc(N)nc(Nc3ccccc3)n2)cc1Cl [Compound 85] | 23 ± 1 µM | 21 ± 4 µM | 15 ± 0.5 µM |  | 38 ± 1 µM |  |  | 
Cc1cc(S(=O)(=O)N=C2NCCN2Cc2ccccc2)c(SCc2nc(N)nc(N3CCN(c4ccc(F)c(Cl)c4)CC3)n2)cc1Cl [Compound 65] | 11 ± 0.5 µM | 11 ± 0.3 µM | 7 ± 0.2 µM |  | 23 ± 1 µM |  |  | 
Cc1cc(S(=O)(=O)N=C2NCCN2Cc2ccc(F)cc2)c(SCc2nc(N)nc(N3CCN(c4ccc(C(F)(F)F)cc4)CC3)n2)cc1Cl [Compound 95] | 7 ± 0.1 µM | 8 ± 0.4 µM | 7 ± 0.3 µM |  | 18 ± 1 µM |  |  | 
Cc1cc(S(=O)(=O)N=C2NCCN2Cc2ccccc2)c(SCc2nc(N)nc(N3CC=C(c4ccc(F)cc4)CC3)n2)cc1Cl [Compound 73] | 7.5 ± 0.3 µM | 14 ± 0.3 µM | < 6 µM | 5.2 ± 0.2 µM | 29 ± 1 µM | 3.8 | 2.0 | 5.5
Cc1cc(S(=O)(=O)N=C2NCCN2Cc2ccc(F)cc2)c(SCc2nc(N)nc(Nc3ccc(F)cc3)n2)cc1Cl [Compound 86] | 15 ± 0.2 µM | 16 ± 0.2 µM | 13 ± 0.5 µM |  | 35 ± 2 µM |  |  | 
Cc1cc(S(=O)(=O)N=C2NCCN2)c(SCc2nc(N)nc(N3CCN(c4ccc(F)c(Cl)c4)CC3)n2)cc1Cl [Compound 39] | 17 ± 1 µM | 18 ± 1 µM | 15 ± 1 µM |  | 37 ± 2 µM |  |  | 
Cc1cc(S(=O)(=O)N=C2NCCN2Cc2ccccc2)c(SCc2nc(N)nc(N3CCN(c4ccc(Cl)c(Cl)c4)CC3)n2)cc1Cl [Compound 64] | 14 ± 0.5 µM | 15 ± 1 µM | 11 ± 0.4 µM |  | 28 ± 1 µM |  |  | 
Cc1cc(S(=O)(=O)N=C2NCCN2)c(SCc2nc(N)nc(NCc3ccccc3)n2)cc1Cl [Compound 27] | 44 ± 1 µM | 74 ± 2 µM | 39 ± 2 µM |  | 75 ± 3 µM |  |  | 
Cc1cc(S(=O)(=O)N=C2NCCN2Cc2ccc(F)cc2)c(SCc2nc(N)nc(N3CCN(c4ccc(Cl)cc4)CC3)n2)cc1Cl [Compound 96] | 6 ± 0.2 µM | 9 ± 0.3 µM | 6 ± 0.3 µM |  | 22 ± 1 µM |  |  | 
Cc1cc(S(=O)(=O)N=C2NCCN2Cc2ccccc2)c(SCc2nc(N)nc(N(C)C)n2)cc1Cl [Compound 45] | 22 ± 0.2 µM | 34 ± 1 µM | 19 ± 0.4 µM |  | 43 ± 2 µM |  |  | 
Cc1cc(S(=O)(=O)N=C2NCCN2Cc2cccc3ccccc23)c(SCc2nc(N)nc(N3CCc4ccccc43)n2)cc1Cl [Compound 74] | 12 ± 0.6 µM | 13 ± 0.5 µM | 44 ± 2 µM |  | 81 ± 4 µM |  |  | 
Cc1cc(S(=O)(=O)N=C2NCCN2Cc2ccccc2)c(SCc2nc(N)nc(N3CCN(C)CC3)n2)cc1Cl [Compound 56] | 54 ± 1 µM | 37 ± 1 µM | 22 ± 1 µM |  | 58 ± 2 µM |  |  | 
Cc1cc(S(=O)(=O)N=C2NCCN2)c(SCc2nc(N)nc(N3CCN(c4ccc(F)cc4)CC3)n2)cc1Cl [Compound 32] | 16 ± 0.5 µM | 14 ± 0.5 µM | 14 ± 0.5 µM |  | 28 ± 1 µM |  |  | 
Cc1cc(S(=O)(=O)N=C2NCCN2)c(SCc2nc(N)nc(N3CCN(c4cccc(Cl)c4)CC3)n2)cc1Cl [Compound 37] | 19 ± 1 µM | 24 ± 1 µM | 18 ± 0.5 µM |  | 37 ± 2 µM |  |  | 
CC1=NN(c2nc(N)nc(CSc3cc(Cl)c(C)cc3S(=O)(=O)N=C3NCCN3Cc3ccccc3)n2)C(C)(C)C1 [Compound 47] | 20 ± 0.4 µM | 34 ± 0.3 µM | 19 ± 0.2 µM |  | 45 ± 2 µM |  |  | 

Second part, led by results:

IC50 (MCF-7 (breast cancer)) | IC50 (HeLa (cervical cancer)) | IC50 (HCT-116 (colon cancer); Homo sapiens, HCT-116, 72 h) | IC50 (HCT-116 (colon cancer)) | SMILES | IC50 [1] | Selectivity Index (SI) MCF-7 (MCF-7 (breast cancer)) | Selectivity Index (SI) HeLa (HeLa (cervical cancer)) | Selectivity Index (SI) HCT-116 (HCT-116 (colon cancer))
7 ± 0.2 µM | 58 ± 2 µM | 8.5 ± 0.3 µM |  | Cc1cc(S(=O)(=O)N=C2NCCN2Cc2ccc(Br)cc2)c(SCc2nc(N)nc(N3CCN(c4ccc(F)cc4)CC3)n2)cc1Cl [Compound 107] | 76 ± 4 µM |  |  | 
11 ± 0.5 µM | 18 ± 1 µM | 11.5 ± 0.6 µM |  | Cc1cc(S(=O)(=O)N=C2NCCN2Cc2cc(C(F)(F)F)cc(C(F)(F)F)c2)c(SCc2nc(N)nc(N(C)c3ccc(Cl)cc3)n2)cc1Cl [Compound 149] | 33 ± 1 µM |  |  | 
11 ± 0.2 µM | 10 ± 0.6 µM | 12 ± 0.5 µM |  | Cc1cc(S(=O)(=O)N=C2NCCN2Cc2ccc(F)cc2)c(SCc2nc(N)nc(N3CCN(Cc4ccccc4)CC3)n2)cc1Cl [Compound 101] | 21 ± 1 µM |  |  | 
7.5 ± 0.4 µM | 5.5 ± 0.2 µM | 4.8 ± 0.1 µM |  | Cc1cc(S(=O)(=O)N=C2NCCN2Cc2cc(C(F)(F)F)cc(C(F)(F)F)c2)c(SCc2nc(N)nc(N3CCN(Cc4ccccc4)CC3)n2)cc1Cl [Compound 156] | 17 ± 1 µM |  |  | 
14 ± 0.5 µM | 15 ± 0.4 µM | 10 ± 0.3 µM |  | Cc1cc(S(=O)(=O)N=C2NCCN2Cc2ccc(C(F)(F)F)cc2)c(SCc2nc(N)nc(N(C)c3ccccc3)n2)cc1Cl [Compound 128] | 33 ± 1 µM |  |  | 
6 ± 0.3 µM | 10 ± 0.4 µM | 5 ± 0.1 µM |  | Cc1cc(S(=O)(=O)N=C2NCCN2Cc2ccc(C(F)(F)F)cc2)c(SCc2nc(N)nc(N3CCN(c4ccc(Cl)cc4)CC3)n2)cc1Cl [Compound 136] | 21 ± 1 µM |  |  | 
13 ± 0.8 µM | 16.5 ± 1 µM | 13 ± 0.5 µM |  | Cc1cc(S(=O)(=O)N=C2NCCN2Cc2cc(C(F)(F)F)cc(C(F)(F)F)c2)c(SCc2nc(N)nc(N3CCCc4ccccc43)n2)cc1Cl [Compound 145] | 36 ± 1 µM |  |  | 
6.5 ± 0.3 µM | 12 ± 0.3 µM | 5 ± 0.2 µM |  | Cc1cc(S(=O)(=O)N=C2NCCN2Cc2cccc(C(F)(F)F)c2)c(SCc2nc(N)nc(N3CCN(c4ccc(C(F)(F)F)cc4)CC3)n2)cc1Cl [Compound 114] | 27 ± 1 µM | 4.1 | 2.2 | 5.4
8 ± 0.2 µM | 15 ± 1 µM | 6.5 ± 0.3 µM |  | Cc1cc(S(=O)(=O)N=C2NCCN2Cc2cc(C(F)(F)F)cc(C(F)(F)F)c2)c(SCc2nc(N)nc(Nc3ccc(C(F)(F)F)cc3)n2)cc1Cl [Compound 147] | 28 ± 1 µM |  |  | 
6 ± 0.2 µM | 12.5 ± 0.5 µM | < 6 µM | 5.5 ± 0.3 µM | Cc1cc(S(=O)(=O)N=C2NCCCN2Cc2ccc(C(F)(F)F)cc2)c(SCc2nc(N)nc(N3CCN(Cc4ccccc4)CC3)n2)cc1Cl [Compound 162] | 25 ± 0.7 µM | 4.1 | 2.0 | 4.5
